Results: paper PMC7213978, “The dynamic interplay of host and viral enzymes in type III CRISPR-mediated cyclic nucleotide signalling” (eLife, 2020)

Tests used:
Csx1 = biological target: T1, Csx1 (Saccharolobus solfataricus, UniProt Q97YD5); test: native gel electrophoretic mobility shift, quadratic fit; assay type: binding
T1 construct: recombinant from plasmid expression construct; homodimer
T1 sequence (Q97YD5 1-377): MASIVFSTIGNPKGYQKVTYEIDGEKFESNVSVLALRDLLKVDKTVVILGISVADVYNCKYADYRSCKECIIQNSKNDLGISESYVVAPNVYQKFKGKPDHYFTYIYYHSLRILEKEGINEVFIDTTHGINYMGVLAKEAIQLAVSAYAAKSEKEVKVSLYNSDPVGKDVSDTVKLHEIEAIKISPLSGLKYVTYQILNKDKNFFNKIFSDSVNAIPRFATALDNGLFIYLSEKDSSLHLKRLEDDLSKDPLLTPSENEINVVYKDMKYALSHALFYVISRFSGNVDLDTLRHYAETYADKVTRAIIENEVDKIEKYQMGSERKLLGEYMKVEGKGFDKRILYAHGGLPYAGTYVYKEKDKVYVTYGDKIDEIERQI

Crn1 (Sso2081) = biological target: T2, Crn1 (Sso2081) (Saccharolobus solfataricus, UniProt Q7LYJ6); test: native gel electrophoretic mobility shift; assay type: binding; conditions: read-out: apparent KD
T2 construct: recombinant from plasmid expression construct; homodimer
T2 sequence (Q7LYJ6 1-178): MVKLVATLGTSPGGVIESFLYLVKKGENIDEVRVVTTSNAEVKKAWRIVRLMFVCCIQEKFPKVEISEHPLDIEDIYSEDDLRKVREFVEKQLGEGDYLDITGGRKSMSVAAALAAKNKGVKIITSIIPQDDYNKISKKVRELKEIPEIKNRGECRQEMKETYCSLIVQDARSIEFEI

For `Nc1ncnc2c1ncn2[C@@H]1O[C@@H]2COP(=O)(O)O[C@H]3[C@@H](O)[C@H](n4cnc5c(N)ncnc54)O[C@@H]3COP(=O)(O)O[C@H]3[C@@H](O)[C@H](n4cnc5c(N)ncnc54)O[C@@H]3COP(=O)(O)O[C@H]3[C@@H](O)[C@H](n4cnc5c(N)ncnc54)O[C@@H]3COP(=O)(O)O[C@H]2[C@H]1O` [cA4, cyclic tetra-adenylate], the Kd (Csx1) was 130 ± 20 nM and the Kd (Crn1 (Sso2081)) was ~50 nM.
